In assay [1] the target is T1, WRN (Homo sapiens, UniProt Q14191).
T1 construct: A His-tagged construct of WRN (AA S2-S1235) was produced and used for the ATPase assay; made in house; host or cells: Sf9 insect cells (baculovirus, pFastBac1)
The assay can be described thus: WRN ATPase activity assay (ADP-Glo). In kind it is biochemical. The settings on record: 1-hr pre-incubation with enzyme; 25 nM forked dsDNA, 100 μM ATP, 1 nM WRN; geometric mean of at least 2 replicates. As to the method:
Compounds of the Examples were tested for WRN ATPase activity. WRN ATPase activity catalyzes ATP hydrolysis to produce ADP and phosphate. DNA encoding the target protein, 6×HIS-TEV-WRN-517-945, was produced, cloned, and transfected as detailed in Example D. The amount of ADP produced was measured using ADP-Glo™ Kinase Assay kit from Promega Corporation in a Greiner white regular volume 384 wells assay plate (Greiner #781075). Data was normalized to a standard curve generated using various ADP concentrations and the corresponding luminescent signal intensities at each concentration. The assay conditions were optimized for enzyme concentration (WRN), substrate concentrations (ATP & dsDNA), and the linearity of the ATPase reaction, in the following assay buffer: 50 mM Tris-HCl, pH-7.5, 2 mM MgCl2, 50 mM NaCl, 1 mM EGTA, 0.01% P-20, 0.05% BSA, and 2 mM DTT prepared with nuclease free water.
A serial dilution (1:3 scheme) of the compounds were prepared in neat DMSO, with 100 nL of the compounds dispensed in the 384 wells assay plate. A 1-hr pre-incubation of the compounds with enzyme was included. A His-tagged construct of WRN (AA S2-S1235) was produced and used for the ATPase assay. Maximum inhibition control wells were set up with the addition of only assay buffer, and no inhibition control wells were set up with neat DMSO without test compounds. The reaction was initiated by addition of 5 μL substrate mix (200 μM ultrapure ATP, and 50 nM dsDNA prepared in assay buffer) and incubated at 25° C. for 35 min. A forked dsDNA oligomer substrate was prepared by annealing equal amounts of oligo GPat-1 ([BHQ2][…]) and oligo GPat-2 ([…][TAM]) and was used as dsDNA substrate for WRN ATPase assay. A typical ATPase reaction consists of 25 nM forked dsDNA, 100 μM ATP, and 1 nM WRN prepared in assay buffer. The WRN ATPase reaction was stopped by the addition of 5 μL of ADP-Glo Reagent from ADP-Glo™ Kinase Assay kit and incubated for 40 min to deplete the unreacted ATP. Afterwards, 5 μL of Kinase Detection Reagent from the ADP-Glo™ Kinase Assay kit was added and incubated for 1 hr for the development of luminescence signal.
Luminesce signals were measured on BMG PHERAstar FSX using luminescence protocol. Data analysis was carried out using Genedata software following % of control normalization. Fitting parameters include dose response IC50, Hill slope (n), maximum inhibition (S∞), and minimum inhibition (S0). The reported IC50 values for compounds in this invention are the geometric means of at least 2 independent replicates.

Assay [2] has as its target T1, WRN. The experiment in a line: WRN Helicase activity assay (fluorescence DNA unwinding). In kind it is biochemical. The following applies: 1-hr pre-incubation with enzyme; 25 nM forked dsDNA, 100 μM ATP, 1 nM WRN; geometric mean of at least 2 replicates. As to the method: Compounds of the examples were tested for WRN helicase activity. DNA encoding the target protein, 6×HIS-TEV-WRN-517-945, was produced, cloned, and transfected as detailed in Example D. To determine the inhibitory properties of the compounds, a 384 wells plate-based Helicase assay was set up to measure the extent of DNA unwinding (Helicase) activity of WRN. The WRN Helicase assay was designed to measure increase in fluorescence signal using a fluorescence based, donor-quencher paired forked dsDNA oligomer substrate (custom synthesis from Sigma-Aldrich) prepared by annealing equal amounts of oligo GPat-1 ([BHQ2][…]) and oligo GPat-2 ([…][TAM]). Continuous measurement of fluorescent signal was used to optimize the buffer conditions, concentration of enzyme (WRN), concentration of substrates (ATP & dsDNA), and the linearity of the Helicase reaction. All solutions were prepared in the following assay buffer: 50 mM Tris-HCl, pH-7.5, 2 mM MgCl2, 50 mM NaCl, 1 mM EGTA, 0.01% P-20, 0.05% BSA, and 2 mM DTT prepared with nuclease free water.
A serial dilution (1:3 scheme) of the compounds was prepared in neat DMSO and 100 nL of the compounds was dispensed in the Greiner black low volume (Greiner #784076) 384 wells assay plate. A 1-hr pre-incubation of the compounds with enzyme was included. A His-tagged construct of WRN (AA S2-S1235) was produced and used for the ATPase assay. Maximum inhibition control wells were set up with the addition of only assay buffer, and no inhibition control wells were set up with neat DMSO without test compounds. The reaction was initiated by addition of 5 μL substrate mix (200 μM ultrapure ATP, and 50 nM dsDNA prepared in assay buffer) and incubated at 25° C. for 35 min. A typical Helicase reaction consists of 25 nM forked dsDNA, 100 μM ATP, and 1 nM WRN prepared in assay buffer. The WRN Helicase reaction was quenched by the addition of 5 μL ‘STOP’ solution containing 100 mM EDTA (final EDTA concentration 33.33 mM) prepared in assay buffer. The plates were read on BMG PHERAstar FSX using 540/590 module to measure an increase of fluorescence. Data analysis was carried out using the Genedata software following % of control normalization. Fitting parameters include dose response IC50, Hill slope (n), maximum inhibition (S∞), and minimum inhibition (S0). The reported IC50 values for compounds in this invention are the geometric means of at least 2 independent replicates.

Some results are limits rather than exact numbers.

T1 sequence (Q14191 2-1235): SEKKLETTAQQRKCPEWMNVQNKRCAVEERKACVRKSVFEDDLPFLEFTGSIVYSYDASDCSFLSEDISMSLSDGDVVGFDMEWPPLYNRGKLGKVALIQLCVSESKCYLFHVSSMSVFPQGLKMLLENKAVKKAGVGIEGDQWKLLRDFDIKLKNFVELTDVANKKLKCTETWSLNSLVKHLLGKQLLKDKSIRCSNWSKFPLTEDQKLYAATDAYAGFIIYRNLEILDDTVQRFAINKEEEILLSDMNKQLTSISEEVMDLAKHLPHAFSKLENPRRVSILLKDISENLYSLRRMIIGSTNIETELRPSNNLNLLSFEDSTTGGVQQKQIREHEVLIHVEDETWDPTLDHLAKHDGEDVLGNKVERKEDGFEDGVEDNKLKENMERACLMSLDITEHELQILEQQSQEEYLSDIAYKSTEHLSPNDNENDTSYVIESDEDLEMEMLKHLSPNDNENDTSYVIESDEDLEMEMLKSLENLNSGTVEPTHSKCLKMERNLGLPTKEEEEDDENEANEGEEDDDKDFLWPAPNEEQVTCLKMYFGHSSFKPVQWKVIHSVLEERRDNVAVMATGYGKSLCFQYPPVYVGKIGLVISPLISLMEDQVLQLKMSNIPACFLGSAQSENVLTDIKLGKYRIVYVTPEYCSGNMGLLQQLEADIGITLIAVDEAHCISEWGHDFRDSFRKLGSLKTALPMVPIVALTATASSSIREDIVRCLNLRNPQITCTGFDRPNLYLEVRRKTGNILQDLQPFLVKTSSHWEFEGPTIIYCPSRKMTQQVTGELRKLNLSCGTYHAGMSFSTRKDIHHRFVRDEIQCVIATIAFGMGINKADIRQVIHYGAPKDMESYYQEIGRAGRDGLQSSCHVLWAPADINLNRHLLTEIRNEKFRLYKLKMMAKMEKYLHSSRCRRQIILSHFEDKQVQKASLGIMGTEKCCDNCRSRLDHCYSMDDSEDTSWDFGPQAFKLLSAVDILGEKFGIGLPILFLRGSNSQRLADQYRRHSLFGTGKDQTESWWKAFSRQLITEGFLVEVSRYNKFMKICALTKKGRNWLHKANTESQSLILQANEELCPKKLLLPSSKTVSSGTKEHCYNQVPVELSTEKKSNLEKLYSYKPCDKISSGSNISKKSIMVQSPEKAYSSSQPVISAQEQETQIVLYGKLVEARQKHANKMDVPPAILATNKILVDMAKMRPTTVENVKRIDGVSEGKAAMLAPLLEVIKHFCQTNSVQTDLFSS

Take `C=CC(=O)Nc1ccccc1-c1c(CC)n(CC(=O)Nc2ccc(C(F)(F)F)cc2)c2nc(C)c(C)n2c1=O` [Example 1, N-(2-(7-ethyl-2,3-dimethyl-5-oxo-8-(2-oxo-2-((4-(trifluoromethyl)phenyl)amino)ethyl)-5,8-dihydroimidazo[1,2-a]pyrimidin-6-yl)phenyl)acrylamide]: the IC50 against WRN [1] and at WRN [2] was 100 to 500 nM throughout.

With `C=CC(=O)Nc1ccccc1-c1c(CC)n(CC(=O)Nc2ccc(C(F)(F)F)cc2)c2nc(-c3ccccc3)cn2c1=O` [Example 2, N-(2-(7-Ethyl-5-oxo-8-(2-oxo-2-((4-(trifluoromethyl)phenyl)amino)ethyl)-2-phenyl-5,8-dihydroimidazo[1,2-a]pyrimidin-6-yl)phenyl)acrylamide], the IC50 against WRN [1] and on WRN [2] was 100 to 500 nM throughout.

`C=CC(=O)Nc1ccccc1-c1c(CC)n(CC(=O)Nc2ccc(F)cc2)c2nc(C)c(C)n2c1=O` [Example 3, N-(2-(7-Ethyl-8-(2-((4-fluorophenyl)amino)-2-oxoethyl)-2,3-dimethyl-5-oxo-5,8-dihydroimidazo[1,2-a]pyrimidin-6-yl)phenyl)acrylamide]: the IC50 against WRN [1] and against WRN [2] was less than 100 nM in each case.

On to `C=CC(=O)Nc1ccccc1-c1c(CC)n(CC(=O)Nc2ccc(F)cc2Cl)c2nc(C)c(C)n2c1=O` [Example 4, N-(2-(8-(2-((2-chloro-4-fluorophenyl)amino)-2-oxoethyl)-7-ethyl-2,3-dimethyl-5-oxo-5,8-dihydroimidazo[1,2-a]pyrimidin-6-yl)phenyl)acrylamide], for which the IC50 on WRN [1] and against WRN [2] was 100 to 500 nM in each case.

Take `C=CC(=O)Nc1ccccc1-c1c(CC)n(CC(=O)Nc2ccc(C(F)(F)F)cc2)c2nc(C)c(-c3ccccc3)n2c1=O` [Example 5, N-(2-(7-ethyl-2-methyl-5-oxo-8-(2-oxo-2-((4-(trifluoromethyl)phenyl)amino)ethyl)-3-phenyl-5,8-dihydroimidazo[1,2-a]pyrimidin-6-yl)phenyl)acrylamide]: the IC50 against WRN [1] and on WRN [2] was 100 to 500 nM throughout.

Regarding `C=CC(=O)Nc1ccccc1-c1c(C)nc2n(CC(=O)Nc3ccc(F)cc3)c(CC)c(-c3ccccc3)c(=O)n12` [Example 6, N-(2-(7-Ethyl-8-(2-((4-fluorophenyl)amino)-2-oxoethyl)-2-methyl-5-oxo-6-phenyl-5,8-dihydroimidazo[1,2-a]pyrimidin-3-yl)phenyl)acrylamide], the IC50 at WRN [1] and against WRN [2] was 100 to 500 nM in each case.

Consider `C=CS(=O)(=O)Nc1ccccc1-c1c(C)nc2n(CC(=O)Nc3ccc(F)cc3)c(CC)c(-c3ccccc3)c(=O)n12` [Example 7, 2-(7-Ethyl-2-methyl-5-oxo-6-phenyl-3-(2-(vinylsulfonamido)phenyl)imidazo[1,2-a]pyrimidin-8(5H)-yl)-N-(4-fluorophenyl)acetamide], for which the IC50 at WRN [1] and against WRN [2] was less than 100 nM each time.

For the compound `C=CC(=O)Nc1ccccc1-c1c(C)nc2n(CC(=O)Nc3ccc(C(F)(F)F)cc3)c(CC)c(C)c(=O)n12` [Example 8, N-(2-(7-Ethyl-2,6-dimethyl-5-oxo-8-(2-oxo-2-((4-(trifluoromethyl)phenyl)amino)ethyl)-5,8-dihydroimidazo[1,2-a]pyrimidin-3-yl)phenyl)acrylamide], the 50% inhibitory concentration (IC50) on WRN [1] and at WRN [2] was less than 100 nM in each case.

`C=CC(=O)Nc1ccccc1-c1c(C)nc2n(CC(=O)Nc3ccc(C(F)(F)F)cc3)c(CC)c(-c3ccc(C(=O)NCC)cc3)c(=O)n12` [Example 9, 4-(3-(2-Acrylamidophenyl)-7-ethyl-2-methyl-5-oxo-8-(2-oxo-2-((4-(trifluoromethyl)phenyl)amino)ethyl)-5,8-dihydroimidazo[1,2-a]pyrimidin-6-yl)-N-ethylbenzamide]: the concentration for half-maximal inhibition (IC50) on WRN [1] and at WRN [2] was less than 100 nM throughout.

As to `C=CC(=O)Nc1ccccc1-c1c(C)nc2n(CC(=O)Nc3ccc(C(F)(F)F)cc3)c(CC)c(-c3ccc(C(=O)NC)nc3)c(=O)n12` [Example 10, 5-(3-(2-Acrylamidophenyl)-7-ethyl-2-methyl-5-oxo-8-(2-oxo-2-((4-(trifluoromethyl)phenyl)amino)ethyl)-5,8-dihydroimidazo[1,2-a]pyrimidin-6-yl)-N-methylpicolinamide], the 50% inhibitory concentration (IC50) against WRN [1] and against WRN [2] was less than 100 nM in each case.
